These results are taken from publication PMC6017736, “Indole-3-Carbonitriles as DYRK1A Inhibitors by Fragment-Based Drug Design” (Molecules : A Journal of Synthetic Chemistry and Natural …, 2018).

Bounds are passed on as bounds.

In data set [1] the target is CLK3 (Mus musculus, UniProt O35492). Put plainly: Protein kinase assay ([γ-33P]-ATP, RS peptide substrate), CLK3. The data set is classed as biochemical. As to conditions: for remaining activity at 10 µM: compared to controls, read-out: Residual Activity at 10 µM CLK3; for IC50: 15 µM ATP. On the procedure: (§1) DYRK1A, 1B, 2, 3 (human, recombinant, expressed in E. coli as GST fusion proteins) and CLK1, 2, 3, and 4 (mouse, recombinant, expressed in E. coli as GST fusion proteins) were assayed as described for GSK-3 in Buffer A (supplemented extemporaneously with 0.15 mg BSA/mL + 1 mM DTT) with 1 µg of RS peptide ([…]) as a substrate.

Data set [2] addresses CLK1 (Mus musculus, UniProt P22518). Put plainly: Protein kinase assay ([γ-33P]-ATP, RS peptide substrate), CLK1. The data set is classed as biochemical. To be noted: for IC50: 15 µM ATP; for remaining activity at 10 µM: 10 µM compound, compared to controls, read-out: Residual Activity at 10 µM CLK1. The protocol: as §1
The target in data set [3] is T1, DYRK1A (Homo sapiens, UniProt Q13627). The data set is described as follows: Ligand-lipophilicity efficiency (pIC50 minus calculated logP). As to conditions: Table S2. On the procedure: All new compounds were evaluated based on their physicochemical properties regarding Lipinski’s rule of five and the ligand-lipophilicity efficiency (LLE). Both concepts are used to assess the druglikeness of drug development candidates. […] LLE is calculated from pIC50 minus calculated logP [46].

Data set [4] concerns GSK-3. Put plainly: Protein kinase assay ([γ-33P]-ATP, GS-1 substrate), GSK-3. To be noted: 10 µM compound; for Residual Activity at 10 µM GSK3: compared to controls.
Data set [5] deals with CLK4 (Mus musculus, UniProt O35493). The data set is described as follows: Protein kinase assay ([γ-33P]-ATP, RS peptide substrate), CLK4. As to conditions: for IC50: 15 µM ATP; for remaining activity at 10 µM: 10 µM compound, compared to controls, read-out: Residual Activity at 10 µM CLK4. The data set is classed as biochemical. The protocol:
as §1

The target in data set [6] is T2, DYRK3 (Homo sapiens, UniProt O43781).
T2 sequence (O43781 1-588): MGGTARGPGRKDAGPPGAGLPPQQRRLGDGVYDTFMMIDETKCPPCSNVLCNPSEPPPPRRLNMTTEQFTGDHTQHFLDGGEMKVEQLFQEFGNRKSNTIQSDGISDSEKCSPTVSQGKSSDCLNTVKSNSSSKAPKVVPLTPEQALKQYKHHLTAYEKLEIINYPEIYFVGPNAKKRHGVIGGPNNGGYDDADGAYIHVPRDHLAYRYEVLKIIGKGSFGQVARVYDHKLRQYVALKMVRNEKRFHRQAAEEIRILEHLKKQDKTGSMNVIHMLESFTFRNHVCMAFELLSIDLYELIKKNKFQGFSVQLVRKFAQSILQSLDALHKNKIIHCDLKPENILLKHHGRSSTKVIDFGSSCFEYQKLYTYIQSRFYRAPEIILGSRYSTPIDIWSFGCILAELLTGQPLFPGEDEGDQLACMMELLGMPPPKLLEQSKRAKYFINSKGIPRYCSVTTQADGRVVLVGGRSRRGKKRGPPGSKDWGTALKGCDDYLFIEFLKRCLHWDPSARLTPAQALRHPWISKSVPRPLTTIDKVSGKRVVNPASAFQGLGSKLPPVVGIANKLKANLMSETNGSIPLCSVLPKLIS
The data set is described as follows: Protein kinase assay ([γ-33P]-ATP, RS peptide substrate), DYRK3. The data set is classed as biochemical. As to conditions: for remaining activity at 10 µM: compared to controls, read-out: Residual Activity at 10 µM DYRK3; for IC50: 15 µM ATP. On the procedure:
as §1

Data set [7] addresses DYRK1B (Homo sapiens, UniProt Q9Y463). Put plainly: Protein kinase assay ([γ-33P]-ATP, RS peptide substrate), DYRK1B. The data set is classed as biochemical. To be noted: for IC50: 15 µM ATP, read-out: IC50 DYRK 1B; for remaining activity at 10 µM: 10 µM compound, compared to controls, read-out: Residual Activity at 10 µM DYRK 1B. On the procedure:
as §1

Data set [8] has as its target T1, DYRK1A. Put plainly: Protein kinase assay ([γ-33P]-ATP, RS peptide substrate), DYRK1A. The data set is classed as biochemical. As to conditions: for IC50: 15 µM ATP, read-out: IC50 DYRK 1A; for remaining activity at 10 µM: 10 µM compound, compared to controls, read-out: Residual Activity at 10 µM DYRK 1A.
In data set [9] the target is T3, DYRK2 (Homo sapiens, UniProt Q92630).
T3 sequence (Q92630 1-601): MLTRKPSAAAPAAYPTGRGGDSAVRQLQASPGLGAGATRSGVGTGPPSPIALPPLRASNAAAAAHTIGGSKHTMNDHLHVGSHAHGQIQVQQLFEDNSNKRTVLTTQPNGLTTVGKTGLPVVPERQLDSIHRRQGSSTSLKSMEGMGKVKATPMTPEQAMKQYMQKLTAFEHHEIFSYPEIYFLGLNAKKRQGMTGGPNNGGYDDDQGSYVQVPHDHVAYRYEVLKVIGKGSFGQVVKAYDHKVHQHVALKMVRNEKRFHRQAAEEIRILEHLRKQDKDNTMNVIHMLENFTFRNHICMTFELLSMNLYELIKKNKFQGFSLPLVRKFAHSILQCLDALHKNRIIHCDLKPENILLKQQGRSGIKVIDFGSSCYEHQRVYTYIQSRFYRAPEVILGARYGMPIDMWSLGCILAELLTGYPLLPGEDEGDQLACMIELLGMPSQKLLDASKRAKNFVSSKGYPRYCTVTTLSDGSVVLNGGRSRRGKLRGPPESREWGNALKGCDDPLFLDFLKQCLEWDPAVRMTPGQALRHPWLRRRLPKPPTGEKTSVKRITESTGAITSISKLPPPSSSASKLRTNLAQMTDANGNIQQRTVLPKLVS
The data set is described as follows: Protein kinase assay ([γ-33P]-ATP, RS peptide substrate), DYRK2. To be noted: for remaining activity at 10 µM: compared to controls, read-out: Residual Activity at 10 µM DYRK2; for IC50: 15 µM ATP. In kind it is biochemical. On the procedure: as §1

For data set [10], the target named is CLK2 (Mus musculus, UniProt O35491). Put plainly: Protein kinase assay ([γ-33P]-ATP, RS peptide substrate), CLK2. In kind it is biochemical. As to conditions: for IC50: 15 µM ATP; for remaining activity at 10 µM: 10 µM compound, compared to controls, read-out: Residual Activity at 10 µM CLK2. On the procedure:
as §1

Data set [11] can be described thus: Cytotoxicity, cell viability by tetrazolium dye assay (XTT assay). As to conditions: human, HeLa cells, 1 µM, read-out: Viability of treated HeLa cells relative to control cells. In kind it is cell-based. On the procedure:
To evaluate the applicability of the 2-substituted indole-3-carbonitrile compounds in cell culture experiments, we assessed toxicity of 6f, 6h, 6s and 13b on HeLa cells by viability assays (Table 4).
The inhibitors were added to the cultured cells from stock solutions in DMSO to the desired final concentration. For cytotoxicity assays, HeLa cells were grown in 96-well plates (20,000–30,000 cells per well) and incubated with the test compounds for 3 days before cell viability was evaluated with the help of a tetrazolium dye assay (XTT assay, AppliChem GmbH, Darmstadt, Germany).

Chain of CLK1 (P22518 whole entry): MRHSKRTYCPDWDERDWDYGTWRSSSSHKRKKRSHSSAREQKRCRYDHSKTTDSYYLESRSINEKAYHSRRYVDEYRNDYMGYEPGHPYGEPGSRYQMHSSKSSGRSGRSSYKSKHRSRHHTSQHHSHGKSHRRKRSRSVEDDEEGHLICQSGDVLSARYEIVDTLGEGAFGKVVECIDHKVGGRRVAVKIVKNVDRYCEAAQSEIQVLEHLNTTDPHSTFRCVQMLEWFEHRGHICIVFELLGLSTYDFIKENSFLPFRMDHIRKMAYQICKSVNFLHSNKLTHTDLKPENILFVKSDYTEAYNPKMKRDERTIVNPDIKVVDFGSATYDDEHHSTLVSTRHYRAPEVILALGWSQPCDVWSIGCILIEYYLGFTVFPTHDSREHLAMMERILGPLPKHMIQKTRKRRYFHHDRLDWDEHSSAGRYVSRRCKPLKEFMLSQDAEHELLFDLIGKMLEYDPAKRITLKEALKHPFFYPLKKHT
Chain of CLK4 (O35493 whole entry): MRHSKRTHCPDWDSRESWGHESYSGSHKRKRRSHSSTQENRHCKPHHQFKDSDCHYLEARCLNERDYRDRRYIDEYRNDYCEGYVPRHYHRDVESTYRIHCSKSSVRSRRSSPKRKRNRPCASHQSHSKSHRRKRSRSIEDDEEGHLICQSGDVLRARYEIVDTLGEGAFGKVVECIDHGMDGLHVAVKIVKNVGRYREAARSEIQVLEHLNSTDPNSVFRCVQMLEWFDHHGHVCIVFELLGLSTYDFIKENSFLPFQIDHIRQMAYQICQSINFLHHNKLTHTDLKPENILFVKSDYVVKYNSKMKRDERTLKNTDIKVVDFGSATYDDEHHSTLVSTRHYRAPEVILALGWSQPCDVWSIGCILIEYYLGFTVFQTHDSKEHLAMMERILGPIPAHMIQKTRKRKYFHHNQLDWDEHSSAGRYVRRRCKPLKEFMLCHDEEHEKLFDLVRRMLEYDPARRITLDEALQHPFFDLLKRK
Chain of CLK2 (O35491 whole entry): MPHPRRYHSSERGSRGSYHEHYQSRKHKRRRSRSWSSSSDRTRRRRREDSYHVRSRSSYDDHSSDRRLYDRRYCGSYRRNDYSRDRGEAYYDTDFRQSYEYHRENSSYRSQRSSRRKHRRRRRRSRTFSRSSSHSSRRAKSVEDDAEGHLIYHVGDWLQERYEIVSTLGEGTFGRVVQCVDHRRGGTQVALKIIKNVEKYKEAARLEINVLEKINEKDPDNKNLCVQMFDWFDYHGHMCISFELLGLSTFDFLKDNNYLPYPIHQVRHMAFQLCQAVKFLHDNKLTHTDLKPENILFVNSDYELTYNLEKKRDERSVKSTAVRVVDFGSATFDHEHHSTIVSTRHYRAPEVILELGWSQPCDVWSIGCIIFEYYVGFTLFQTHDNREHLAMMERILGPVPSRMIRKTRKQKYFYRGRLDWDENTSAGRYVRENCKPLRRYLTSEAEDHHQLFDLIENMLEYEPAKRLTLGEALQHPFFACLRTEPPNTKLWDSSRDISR
Chain of DYRK1B (Q9Y463 whole entry): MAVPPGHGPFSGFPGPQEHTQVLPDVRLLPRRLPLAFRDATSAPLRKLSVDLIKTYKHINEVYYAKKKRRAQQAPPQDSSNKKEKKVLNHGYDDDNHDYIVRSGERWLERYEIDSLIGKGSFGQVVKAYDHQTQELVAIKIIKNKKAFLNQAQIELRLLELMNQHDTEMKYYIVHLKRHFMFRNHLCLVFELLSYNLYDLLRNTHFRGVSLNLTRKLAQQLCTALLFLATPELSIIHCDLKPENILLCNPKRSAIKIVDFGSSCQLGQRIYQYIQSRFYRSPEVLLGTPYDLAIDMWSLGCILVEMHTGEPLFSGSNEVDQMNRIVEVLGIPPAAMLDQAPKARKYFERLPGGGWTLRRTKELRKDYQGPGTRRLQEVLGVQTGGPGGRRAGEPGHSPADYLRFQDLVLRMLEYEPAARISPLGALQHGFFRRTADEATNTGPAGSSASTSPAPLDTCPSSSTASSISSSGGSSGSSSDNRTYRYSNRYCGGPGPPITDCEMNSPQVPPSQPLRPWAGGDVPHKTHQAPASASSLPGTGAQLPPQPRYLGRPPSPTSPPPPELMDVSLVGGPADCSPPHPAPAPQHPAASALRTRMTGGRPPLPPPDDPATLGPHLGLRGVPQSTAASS
Chain of CLK3 (O35492 whole entry, the tested form may be a part): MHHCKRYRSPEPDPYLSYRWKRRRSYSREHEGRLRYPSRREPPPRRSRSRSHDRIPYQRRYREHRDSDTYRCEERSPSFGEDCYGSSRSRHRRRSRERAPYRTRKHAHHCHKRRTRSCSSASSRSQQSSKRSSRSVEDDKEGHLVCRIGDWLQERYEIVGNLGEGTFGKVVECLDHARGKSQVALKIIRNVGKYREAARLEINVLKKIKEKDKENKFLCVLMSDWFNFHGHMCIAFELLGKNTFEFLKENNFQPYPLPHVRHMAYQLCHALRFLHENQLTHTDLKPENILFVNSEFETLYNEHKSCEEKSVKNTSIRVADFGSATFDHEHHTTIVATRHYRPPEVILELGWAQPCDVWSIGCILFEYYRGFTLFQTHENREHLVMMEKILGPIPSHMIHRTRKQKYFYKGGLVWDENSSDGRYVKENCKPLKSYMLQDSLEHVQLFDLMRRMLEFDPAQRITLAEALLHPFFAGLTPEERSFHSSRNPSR

With `N#Cc1c(-c2ccccc2)[nH]c2ccccc12` [Compound 6d, 2-Phenyl-1H-indole-3-carbonitrile], the inhibition (commonly the drop in the measured response relative to a control, in per cent) at 10 µM was below 20% in data set [1] (10 µM compound, read-out: Inhibition at 10 µM CLK3 (class symbol)); below 20% in [6] (10 µM compound, read-out: Inhibition at 10 µM DYRK3 (class symbol)); below 20% in [9] (10 µM compound, read-out: Inhibition at 10 µM DYRK2 (class symbol)). In addition, the IC50 (as a rule, the concentration at which inhibition is half-maximal) in data set [2] was 800 nM; in [5], 2000 nM; in data set [7] it was 6000 nM; in [8], 400 nM; in data set [10], above 10000 nM. Further, in data set [3], the LLE was 2.90. For the same compound, the “Inhibition at 10 µM GSK3 (class symbol)” value in data set [4] is on record as “- (-: less than 20% inhibition at 10 µM, IC50 was not determined)”.
As for `Cc1cccc2c(C#N)c(-c3ccccc3)[nH]c12` [Compound 6e, 7-Methyl-2-phenyl-1H-indole-3-carbonitrile], the remaining activity at 10 µM came to 124% in data set [1] (10 µM compound); 56% in data set [2]; 43% in data set [5]; 105% in data set [6] (10 µM compound); 74% in data set [7]; 35% in data set [8]. In addition, the remaining activity at 10 µM in [9] (10 µM compound) and in data set [10] was 75% each time.
Take `N#Cc1c(-c2ccc(Cl)cc2)[nH]c2c(Cl)cccc12` [Compound 6i, 7-Chloro-2-(4-chlorophenyl)-1H-indole-3-carbonitrile]: the remaining activity at 10 µM in [2] turned out to be 68%; in data set [8], 60%. Moreover, in data set [4], the “Residual Activity at 10 µM GSK3” value is given as 112%.
The corresponding values for `COc1ccc(-c2[nH]c3c(Cl)cccc3c2C#N)cc1` [Compound 6j, 7-Chloro-2-(4-methoxyphenyl)-1H-indole-3-carbonitrile] are 47%, 60% and 118%.
Turning to `C=CCc1[nH]c2c(Cl)cccc2c1C#N` [Compound 6k, 2-Allyl-7-chloro-1H-indole-3-carbonitrile], the half-maximal inhibitory concentration (IC50) in [1] is above 10000 nM; in [2], 533 nM; in data set [5] it was 533 nM; in [6] it was above 10000 nM; in data set [7] it was 1300 nM; in data set [8], 690 nM. Further, the results for the IC50 in data set [9] and in data set [10] were above 10000 nM and 1300 nM, respectively. In addition, in data set [3], the LLE is recorded as 2.77.
For the compound `N#Cc1c(CCC2OCCCO2)[nH]c2c(Cl)cccc12` [Compound 6l, 2-(2-(1,3-Dioxan-2-yl)ethyl)-7-chloro-1H-indole-3-carbonitrile], the IC50 is above 10000 nM in [1]; 4900 nM in data set [2]; 4000 nM in [5]; above 10000 nM in data set [6]; above 10000 nM in [7]; 3900 nM in data set [8]. Besides, the IC50 in [9] and in data set [10] was above 10000 nM each time. In addition, the LLE in data set [3] was 2.57.
As to `N#Cc1c(-c2ccc(Cl)cc2)[nH]c2c(I)cccc12` [Compound 6m, 7-Iodo-2-(4-chlorophenyl)-1H-indole-3-carbonitrile], the remaining activity at 10 µM in [1] (10 µM compound) was 130%; in data set [2], 55%; in data set [5] it was 36%; in [6] (10 µM compound), 101%; in data set [7], 79%; in [8], 42%. Besides, the remaining activity at 10 µM in data set [9] (10 µM compound) was 116%; in [10], 92%.
As to `COc1ccc(-c2[nH]c3c(I)cccc3c2C#N)cc1` [Compound 6n, 7-Iodo-2-(4-methoxyphenyl)-1H-indole-3-carbonitrile], the IC50 in data set [1] is above 10000 nM; in data set [2] it was 333 nM; in data set [5] it was 220 nM; in [6], above 10000 nM; in data set [7], above 10000 nM; in [8], 233 nM. In addition, the concentration for half-maximal inhibition (IC50) in data set [9] and in data set [10] was above 10000 nM each time. Also, in data set [3], the LLE is 2.36.
Take `COc1cccc(-c2[nH]c3c(I)cccc3c2C#N)c1` [Compound 6o, 7-Iodo-2-(3-methoxyphenyl)-1H-indole-3-carbonitrile]: the IC50 in data set [1] is above 10000 nM; in data set [2], 633 nM; in [5], 290 nM; in [6], above 10000 nM; in data set [7], 633 nM; in data set [8], 210 nM. Also, the IC50 was above 10000 nM in [9] and 3300 nM in data set [10]. In addition, in [3], the LLE is recorded as 2.41.
With `N#Cc1cn(Cc2ccccc2)c2c(Cl)cccc12` [Compound 13a, 1-Benzyl-7-chloro-1H-indole-3-carbonitrile], the remaining activity at 10 µM in data set [1] (10 µM compound) came out at 127%; in data set [2], 102%; in data set [5], 84%; in data set [6] (10 µM compound), 95%; in data set [7], 78%; in data set [8] it was 97%. The remaining activity at 10 µM in data set [9] (10 µM compound) came to 144%; in data set [10], 95%.
As for `Cn1cc(C#N)c2cccc(Cl)c21` [Compound 13c, 7-Chloro-1-methyl-1H-indole-3-carbonitrile], the remaining activity at 10 µM was 97% in data set [1] (10 µM compound); 56% in [2]; 30% in data set [5]; 95% in data set [6] (10 µM compound); 47% in data set [7]; 32% in data set [8]. Also, the remaining activity at 10 µM in data set [9] (10 µM compound) was 117%; in data set [10], 70%.
For the compound `CN[C@@H]1C[C@H]2O[C@@](C)([C@@H]1OC)n1c3ccccc3c3c4c(c5c6ccccc6n2c5c31)C(=O)NC4` [Staurosporine, reference compound], the viability (as a rule, a read-out of living cells in per cent, often relative to untreated cells) at 3 days, 1 µM in data set [11] is 20%.
